Assay results as given in PubChem BioAssay AID850 (SRMLSC, 2007).
Activity calls are given as the source filed them. The rule behind the calls is not given here.

Assays:
[1] = concentration-response yeast growth inhibition under permissive conditions, counter-assay for yeast lifespan-shortening chemical project (AID 850); details: Saccharomyces cerevisiae growth inhibition, permissive control, measured here: maximum growth inhibition, stronger effect = higher value;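 note: growth read as optical density after one day of incubation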
[2] = test system: Saccharomyces cerevisiae growth inhibition, permissive control; assay: as above

SMILES	inhibition ([1]; at 50 µM) [%]	IC50 [2]	further results
O=C(CC(O)(C(F)(F)F)C(F)(F)F)Nc1ccc(Cl)c(Cl)c1	92.8	19.2 µM	
Cc1nn(-c2ccc(F)cc2)c2sc(C(=O)O)cc12	60.6	49.1 µM	
O=C1C(=O)c2c(C(=O)c3ccccc3)coc2-c2ccccc21	99.6	10.3 µM	
COc1ccc2nc(/N=C(\N)NC(=O)Nc3ccccc3)nc(C)c2c1	73.7	33.8 µM	
Cc1cccc(/C(N)=N/OC(=O)c2ccc(F)cc2)c1	23.4	> 100 µM (inactive)	
Cc1cccc(CSc2cccc3cccnc23)c1	99.4	13.8 µM	
O=[N+]([O-])c1cc(CN2CCCC2)c2cccnc2c1O	21	> 100 µM (inactive)	
CCC1C(=O)N=C(SCC(=O)Nc2ccccc2)NC1=O (stereo not drawn)	52.5	46.5 µM	
c1ccc(-c2nnc(-c3ccccn3)nc2NC2CCCCC2)cc1	99.6	12.6 µM	
O=C1c2ccccc2-c2nc3ccccc3nc21	27.3	> 100 µM (inactive)	
Cc1ccc(C)c(-n2nnnc2SCC(=O)Nc2cccc(-c3nnc4n3CCCCC4)c2)c1	17.5	> 100 µM (inactive)	
O=C(Oc1ccc(Cl)c2cccnc12)c1ccco1	100	12.4 µM	
CCc1cccc(C)c1NC(=S)NCc1ccc2[nH]c(C)cc2c1	8.77	> 100 µM (inactive)	
Oc1ccc2ccccc2c1N=Nc1ccccn1	97.5	25 µM	
CN1CCN(C2=Cc3cc(Cl)ccc3Sc3cc(F)ccc32)CC1	100	20.4 µM	
c1ccc(N(c2ccccc2)c2nc(-n3ccnc3)nc(-n3ccnc3)n2)cc1	62.1	37.6 µM	
N/C(Cc1ccc(Cl)cc1)=N\OC(=O)c1ccccc1	98	29.8 µM	
Cc1ccc(CNC(=O)c2ccc(Cn3nc(C)c(Cl)c3C)o2)cc1	99.8	17.2 µM	
CC(C)(C)c1ccc(NC(=O)COC(=O)c2ccc([N+](=O)[O-])s2)cc1	56.3	49.5 µM	
C=CCc1c(C)c(C#N)c2nc3ccccc3n2c1NCCN(C)C	98.6	12.5 µM	
CC(Nc1ccc(Br)cn1)c1cc(Cl)ccc1O (stereo not drawn)		> 100 µM (inactive)	inhibition ([1]; at 0.781 µM): 12.8%

SMILES	inhibition ([1]; at 50 µM) [%]	IC50 [2]	further results
NC(=O)c1sc2nc(-c3ccco3)ccc2c1N		> 100 µM (inactive)	inhibition ([1]; at 1.563 µM): 8.46%
Cc1ccc(N=Cc2cccc(O)c2O)c(C)c1	99.4	16 µM	
Cc1ccccc1N=Cc1cccc(O)c1O	99.2	7.59 µM	
Fc1ccc(N/N=C2/CC(c3ccccc3)Oc3ccccc32)c(F)c1 (stereo not drawn)	95.9	25.9 µM	
Cc1nnc(C)n1/N=C/c1cc(Br)cc(Br)c1O	99.2	0.324 µM	
O=C1CCN2C=Nc3cccc4ccc1c2c34		> 100 µM (inactive)	inhibition ([1]; at 25 µM): 26%
CCCc1cc(-c2n[nH]c(=S)n2C(C)c2ccccc2)cs1 (stereo not drawn)		> 100 µM (inactive)	inhibition ([1]; at 0.391 µM): 1.3%
Clc1ccc(N=c2ssnc2Cl)cc1	66.3	32.6 µM	
O=C(/C=C/N1CCOCC1)c1ccc(-c2ccccc2)cc1		7.19 µM	inhibition ([1]; at 25 µM): 99.6%
c1ccc(-c2csc3nnc(SCc4ccc5c(c4)OCO5)n23)cc1		> 100 µM (inactive)	inhibition ([1]; at 0.781 µM): 9.45%
COc1ccccc1NC(=O)Cc1noc(CSc2cccc[n+]2[O-])n1	97.7	21.9 µM	
Oc1ccc(N=Nc2cccc(Cl)c2)cc1C=Nc1ccc(N2CCOCC2)cc1		> 100 µM (inactive)	inhibition ([1]; at 12.5 µM): 2.01%
CCOCC(=O)Nc1nc2c(s1)C(=O)CC(C)(C)C2	1.4	> 100 µM (inactive)	
CNC(=O)c1cc2c(ccc3ccccc32)oc1=N	74.8	23.5 µM	
CC1=C/C(=N\OS(=O)(=O)c2ccccc2)C(C)=CC1=O		0.614 µM	inhibition ([1]; at 12.5 µM): 100%
Clc1ccccc1N/N=C/c1ccc2c(c1)OCO2	98	24.4 µM	
CN1CCc2cc3c(c4c2[C@H]1[C@H](O)c1ccccc1-4)OCO3	11.1	> 100 µM (inactive)	
COc1ccccc1OCC(=O)n1cc(C(=O)c2cc(Cl)cc(Cl)c2O)cn1	100	4.72 µM	
Cc1cccc(N=Nc2ccc(O)c3ncccc23)c1	27.9	> 100 µM (inactive)	
CCCc1cc(C(=O)NC2CCCCC2)no1		> 100 µM (inactive)	inhibition ([1]; at 0.391 µM): 10.3%
O=C1NC(c2ccccn2)Nc2sc3c(c21)CCC3 (stereo not drawn)		> 100 µM (inactive)	inhibition ([1]; at 0.195 µM): 25.5%

SMILES	inhibition ([1]; at 50 µM) [%]	IC50 [2]	further results
Oc1c(Cl)cc(Cl)c2c1NCCC2	99.8	15.9 µM	
COc1ccc(CN2CN(C(C)C)CSC2=S)cc1	26.3	> 100 µM (inactive)	
O=c1oc2ccccc2c(O)c1/C=C1\C=Nc2ccccc21	93.2	5.05 µM	
CC12C(=O)N(c3cccc4cccnc34)C(=O)C1C1C=CC2C1 (stereo not drawn)		> 100 µM (inactive)	inhibition ([1]; at 0.781 µM): 13.8%
Cc1cc(C(=O)COC(=O)c2ccc[nH]c2=O)c(C)n1-c1ccccc1	67.1	26.9 µM	
Cc1ccccc1NC(=S)c1nc2ccccc2[nH]1	95.3	11.8 µM	
Cc1cccc(Nc2nc(-c3ccccn3)cs2)n1		13.3 µM	inhibition ([1]; at 25 µM): 63.1%
COc1cccc(-n2nnnc2S(C)(=O)=O)c1	83.2	23.9 µM	
Cc1cc(O)c(/C=N/Nc2ccc(Cl)cc2)c(=O)o1		3.93 µM	inhibition ([1]; at 25 µM): 98.2%
CCOC(=O)c1c(NC(=O)C(C)Sc2cccc[n+]2[O-])sc2c1CCN(Cc1ccccc1)C2 (stereo not drawn)	98.6	16.3 µM	
CCCCCCCCC/C(=N\O)c1ccccn1	101	5.48 µM	
CCc1nc2ccccc2c(=O)n1NC(=O)c1c(O)c2cccc3c2n(c1=O)CCC3	2.73	> 100 µM (inactive)	
O=C(c1ccc(Cl)cc1)c1c[nH]c(C(=O)C(Cl)(Cl)Cl)c1	77.6	47.4 µM	
CCOC(=O)c1c(NC(=S)Nc2ccc(Cl)cc2)sc2c1CCN(C)C2		8.2 µM	inhibition ([1]; at 25 µM): 99.8%
CCOC(=O)c1cnc(-n2nc(C)cc2C)nc1NC1CCCCC1	57.5	42.8 µM	
Cc1cc(N2CCN(c3cccc(C)c3C)CC2)nc(-c2ccccc2)n1	93	37.3 µM	
Cc1ccc(-c2nn(C(C)(C)C)c3ncnc(N)c23)cc1	84.2	0.458 µM	
CC1(CCc2ccccc2)NC(=S)N(c2ccc(Cl)cc2)N1 (stereo not drawn)	99.6	20.1 µM	
N/C(Cc1ccc(Cl)c(Cl)c1)=N\OC(=O)c1cccs1		> 100 µM (inactive)	inhibition ([1]; at 0.195 µM): 4.64%
Cc1cccc(NC(=O)CC2SC(=O)N(c3ccccc3)C2=O)c1 (stereo not drawn)	-6.43	> 100 µM (inactive)	
Cc1nc(Nc2ccc(Cl)c(Cl)c2)sc1C(=O)Nc1ccccc1	15.6	> 100 µM (inactive)	

SMILES	inhibition ([1]; at 50 µM) [%]	IC50 [2]	further results
O=c1c(-c2ccccc2)nc(-c2ccccc2)cn1O	82.1	22.9 µM	
CC(C)(C)n1nc(-c2ccc(Cl)cc2)c2c(N)ncnc21	80.7	1.1 µM	
NC(N)=N/N=C/c1ccc(OCc2ccc(Cl)cc2)cc1	81.6	34.6 µM	
CCn1c(=O)c(C(=O)Nc2nc3ccccc3[nH]2)c(O)c2ccccc21		> 100 µM (inactive)	inhibition ([1]; at 0.781 µM): 24.2%
O=C(COc1ccccc1)NNC(=S)NC(=O)c1ccc(Cl)cc1Cl	84.4	25.7 µM	
CC(C)(C)N/N=C/c1cc(Cl)cc([N+](=O)[O-])c1O	95.7	16.8 µM	
CC(Sc1cccc[n+]1[O-])C(=O)Nc1cccc(S(=O)(=O)N2CCOCC2)c1 (stereo not drawn)	99.8	8.22 µM	
COc1ccc(-c2nnc3c4ccccc4c(C)nn23)cc1		> 100 µM (inactive)	inhibition ([1]; at 1.563 µM): 11.6%
Cc1nc(N/N=C/c2ccccn2)sc1C	99.8	25.8 µM	
O=Cc1c(Sc2ccccc2)nc2ccccn2c1=O		> 100 µM (inactive)	inhibition ([1]; at 12.5 µM): 2.01%
Cc1oc(-c2cccs2)nc1CS(=O)CC(=O)NC1CCCCCC1 (stereo not drawn)		> 100 µM (inactive)	inhibition ([1]; at 6.25 µM): 18.9%
C=CCn1c2ccccc2c2nnc(SCN3C(=O)c4ccccc4C3=O)nc21		> 100 µM (inactive)	inhibition ([1]; at 6.25 µM): 12.7%
Cc1ccc(C(=O)O)cc1N=Cc1cc(Br)cc(Br)c1O	97.1	6.04 µM	
O=c1cc(-c2ccncc2)oc2ccccc12		> 100 µM (inactive)	inhibition ([1]; at 3.125 µM): 20.9%
CCC(C)NC(=O)CS(=O)Cc1nc(-c2ccccc2C)oc1C (stereo not drawn)		> 100 µM (inactive)	inhibition ([1]; at 1.563 µM): 23.5%
S=C(NCC1CCCCC1)Nc1ccc(Oc2ccccc2)cc1		> 100 µM (inactive)	inhibition ([1]; at 0.781 µM): 7.72%
Oc1cccc(/C=N/NC(=S)Nc2cccnc2)c1O		> 100 µM (inactive)	inhibition ([1]; at 0.781 µM): 7.13%
O=C(COc1ccc(Cl)cc1)NC1=NN(c2ccccc2)C(=O)C1		> 100 µM (inactive)	inhibition ([1]; at 6.25 µM): 14.6%
O=C1CSC(=S)N1c1cccnc1	14.8	> 100 µM (inactive)	
c1ccc(Cc2nnc3sc(-c4ccco4)nn23)cc1		> 100 µM (inactive)	inhibition ([1]; at 25 µM): 4.05%
CN1C(=O)c2cccc3c(Cl)ccc(c23)C1=O	19.1	> 100 µM (inactive)	
